Laboratory results: PMC9040849 (RSC Advances, 2021)

What was measured:
in vitro = details: human
[1] = tested on: influenza A/Puerto Rico/8/34 H1N1 (PR8) virus; assay: microbe, parasite or virus in culture; assay type: cell-based; details: for SI (selectivity index, ratio of the CC50 to the IC50): A549 cells, PR8; for IC50: Influenza A virus, H1N1|PR8, A549, 24 h

SMILES: COC(=O)C(Cc1ccc(O)cc1)n1c(C)nc(C#N)c1N (stereo not shown) [Compound 4f, Methyl 2-(5-amino-4-cyano-2-methyl-1H-imidazol-1-yl)-3-(4-hydroxyphenyl)propanoate]
- CC50 (in vitro): 1450 nM
- SI (selectivity index, ratio of the CC50 to the IC50) [1]: 0.5
- IC50 [1]: 3200 nM

SMILES: COC(=O)C(Cc1ccccc1)n1c(C)nc2c(=O)[nH]cnc21 (stereo not shown) [Compound 6e, Methyl 2-(8-methyl-6-oxo-1,6-dihydro-9H-purin-9-yl)-3-phenylpropanoate]
- CC50 (in vitro): 510 nM
- SI (selectivity index, ratio of the CC50 to the IC50) [1]: 0.3
- IC50 [1]: 1870 nM

SMILES: Cc1nc2c(=O)[nH]cnc2n1C(C(=O)O)C(C)C (stereo not shown) [Compound 7c, 3-Methyl-2-(8-methyl-6-oxo-1,6-dihydro-9H-purin-9-yl)butanoic acid]
- CC50 (in vitro): 1090 nM
- expression of HA on infected monolayers (RFU % vs untreated infected cells) [1]: decreased
- IC50 [1]: 590 nM

SMILES: COC(=O)C(Cc1ccc(O)cc1)n1c(C)nc2c(=O)[nH]cnc21 (stereo not shown) [Compound 6f, Methyl 3-(4-hydroxyphenyl)-2-(8-methyl-6-oxo-1,6-dihydro-9H-purin-9-yl)propanoate]
- CC50 (in vitro): 800 nM
- IC50 [1]: 480 nM

SMILES: Cc1nc2c(=O)[nH]cnc2n1C(CO)C(=O)O (stereo not shown) [Compound 7d, 3-Hydroxy-2-(8-methyl-6-oxo-1,6-dihydro-9H-purin-9-yl)propanoic acid]
- CC50 (in vitro): 6110 nM

SMILES: Cc1nc2c(=O)[nH]cnc2n1CC(=O)O [Compound 7a, 2-(8-Methyl-6-oxo-1,6-dihydro-9H-purin-9-yl)acetic acid]
- CC50 (in vitro): 750 nM
- SI (selectivity index, ratio of the CC50 to the IC50) [1]: 0.84
- IC50 [1]: 890 nM

SMILES: COC(=O)C(C)n1c(C)nc2c(=O)[nH]cnc21 (stereo not shown) [Compound 6b, Methyl 2-(8-methyl-6-oxo-1,6-dihydro-9H-purin-9-yl)propanoate]
- CC50 (in vitro): 470 nM

SMILES: Cc1nc(C#N)c(N)n1C(Cc1ccc(O)cc1)C(=O)O (stereo not shown) [Compound 5f, 2-(5-Amino-4-cyano-2-methyl-1H-imidazol-1-yl)-3-(4-hydroxyphenyl)propanoic acid]
- CC50 (in vitro): 900 nM
- SI (selectivity index, ratio of the CC50 to the IC50) [1]: 0.45
- IC50 [1]: 1990 nM

SMILES: Cc1nc(C#N)c(N)n1CC(=O)O [Compound 5a, 2-(5-Amino-4-cyano-2-methyl-1H-imidazol-1-yl)acetic acid]
- CC50 (in vitro): 2200 nM
- expression of HA on infected monolayers (RFU % vs untreated infected cells) [1]: decreased
- IC50 [1]: 760 nM

SMILES: Cc1nc(C#N)c(N)n1C(C(=O)O)C(C)C (stereo not shown) [Compound 5c, 2-(5-Amino-4-cyano-2-methyl-1H-imidazol-1-yl)-3-methylbutanoic acid]
- CC50 (in vitro): 620 nM
- SI (selectivity index, ratio of the CC50 to the IC50) [1]: 0.8
- IC50 [1]: 830 nM

SMILES: Cc1nc2c(=O)[nH]cnc2n1C(Cc1ccccc1)C(=O)O (stereo not shown) [Compound 7e, 2-(8-Methyl-6-oxo-1,6-dihydro-9H-purin-9-yl)-3-phenylpropanoic acid]
- CC50 (in vitro): 6350 nM

SMILES: COC(=O)C(Cc1ccccc1)n1c(C)nc(C#N)c1N (stereo not shown) [Compound 4e, Methyl 2-(5-amino-4-cyano-2-methyl-1H-imidazol-1-yl)-3-phenylpropanoate]
- CC50 (in vitro): 840 nM
- IC50 [1]: 390 nM

SMILES: COC(=O)C(CO)n1c(C)nc2c(=O)[nH]cnc21 (stereo not shown) [Compound 6d, Methyl 3-hydroxy-2-(8-methyl-6-oxo-1,6-dihydro-9H-purin-9-yl)propanoate]
- CC50 (in vitro): 930 nM

SMILES: Cc1nc(C#N)c(N)n1C(Cc1ccccc1)C(=O)O (stereo not shown) [Compound 5e, 2-(5-Amino-4-cyano-2-methyl-1H-imidazol-1-yl)-3-phenylpropanoic acid]
- CC50 (in vitro): 3360 nM
- IC50 [1]: 460 nM

SMILES: COC(=O)C(C(C)C)n1c(C)nc2c(=O)[nH]cnc21 (stereo not shown) [Compound 6c, Methyl 3-methyl-2-(8-methyl-6-oxo-1,6-dihydro-9H-purin-9-yl)butanoate]
- CC50 (in vitro): 310 nM
- IC50 [1]: 180 nM

SMILES: COC(=O)Cn1c(C)nc2c(=O)[nH]cnc21 [Compound 6a, Methyl 2-(8-methyl-6-oxo-1,6-dihydro-9H-purin-9-yl)acetate]
- CC50 (in vitro): 2110 nM
- SI (selectivity index, ratio of the CC50 to the IC50) [1]: 0.3
- IC50 [1]: 6960 nM

SMILES: COC(=O)C(C(C)C)n1c(C)nc(C#N)c1N (stereo not shown) [Compound 4c, Methyl 2-(5-amino-4-cyano-2-methyl-1H-imidazol-1-yl)-3-methylbutanoate]
- CC50 (in vitro): 1130 nM
- SI (selectivity index, ratio of the CC50 to the IC50) [1]: 0.5
- IC50 [1]: 2410 nM

SMILES: COC(=O)C(C)n1c(C)nc(C#N)c1N (stereo not shown) [Compound 4b, Methyl 2-(5-amino-4-cyano-2-methyl-1H-imidazol-1-yl)propanoate]
- CC50 (in vitro): 2750 nM
- IC50 [1]: 760 nM

SMILES: Cc1nc2c(=O)[nH]cnc2n1C(C)C(=O)O (stereo not shown) [Compound 7b, 2-(8-Methyl-6-oxo-1,6-dihydro-9H-purin-9-yl)propanoic acid]
- CC50 (in vitro): 2860 nM
- IC50 [1]: 1850 nM

SMILES: COC(=O)C(CO)n1c(C)nc(C#N)c1N (stereo not shown) [Compound 4d, Methyl 2-(5-amino-4-cyano-2-methyl-1H-imidazol-1-yl)-3-hydroxypropanoate]
- CC50 (in vitro): 1990 nM
- IC50 [1]: 680 nM

SMILES: Cc1nc(C#N)c(N)n1C(C)C(=O)O (stereo not shown) [Compound 5b, 2-(5-Amino-4-cyano-2-methyl-1H-imidazol-1-yl)propanoic acid]
- CC50 (in vitro): 2910 nM
- SI (selectivity index, ratio of the CC50 to the IC50) [1]: 1
- IC50 [1]: 3000 nM

SMILES: COC(=O)Cn1c(C)nc(C#N)c1N [Compound 4a, Methyl 2-(5-amino-4-cyano-2-methyl-1H-imidazol-1-yl)acetate]
- CC50 (in vitro): 1020 nM
